Molecular target: T1, GCS (Canis lupus familiaris, UniProt A0A8I3MXG6)
T1 sequence (A0A8I3MXG6 1-394): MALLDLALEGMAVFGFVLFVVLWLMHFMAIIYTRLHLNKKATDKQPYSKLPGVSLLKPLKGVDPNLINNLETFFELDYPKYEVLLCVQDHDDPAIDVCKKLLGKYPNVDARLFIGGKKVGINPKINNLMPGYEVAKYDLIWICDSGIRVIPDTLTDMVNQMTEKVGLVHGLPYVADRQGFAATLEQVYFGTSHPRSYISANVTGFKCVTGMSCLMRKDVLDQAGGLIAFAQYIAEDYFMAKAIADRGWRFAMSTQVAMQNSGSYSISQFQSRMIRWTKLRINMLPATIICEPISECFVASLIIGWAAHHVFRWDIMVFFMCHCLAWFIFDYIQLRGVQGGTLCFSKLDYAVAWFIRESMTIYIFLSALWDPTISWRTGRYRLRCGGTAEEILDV
Assay: Assay 1: GCS Enzymatic Assay (MDCK cell lysate, C6-NBD-Ceramide, LC/MS)
Assay type: biochemical, canine
Conditions: Table 1; MDCK cell lysate; read-out: IC50 (nM) generated from Assay 1
How it was run: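 LC/MS/MS measurement of glucosylceramide and NBD-ceramide after a 1 h, 37 °C reaction with 100 μM UDP-glucose and 10 μM C6-NBD-ceramide gave IC50s or percent inhibition.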

Row | Compound | IC50 [nM]
1 | O=C(N[C@H](CN1CCCC1)[C@@H](O)c1ccc(OC2CC2)c(Cl)c1)C(F)(F)c1cc2cc(C(F)(F)F)ccc2o1 [Compound 69A, N-((1S,2R)-1-(3-chloro-4-cyclopropoxyphenyl)-1-hydroxy-3-(pyrrolidin-1-yl)propan-2-yl)-2,2-difluoro-2-(5-(trifluoromethyl)benzofuran-2-yl)acetamide] | 50 to 5000
2 | O=C(N[C@H](CN1CCCC1)[C@H](O)c1ccc2c(c1)OCCO2)C(=O)C1Cc2ccccc2C1 [Compound 70, 2-(2,3-dihydro-1H-inden-2-yl)-N-((1R,2R)-1-(2,3-dihydrobenzo[b][1,4]dioxin-6-yl)-1-hydroxy-3-(pyrrolidin-1-yl)propan-2-yl)-2-oxoacetamide] | < 50
3 | O=C(N[C@H](CN1CCCC1)[C@H](O)c1ccc2c(c1)OCCO2)C(=O)c1cc2cc(Cl)ccc2o1 [Compound 71, 2-(5-chlorobenzofuran-2-yl)-N-((1R,2R)-1-(2,3-dihydrobenzo[b][1,4]dioxin-6-yl)-1-hydroxy-3-(pyrrolidin-1-yl)propan-2-yl)-2-oxoacetamide] | < 50
4 | O=C(N[C@H](CN1CCCC1)[C@H](O)c1ccc2c(c1)OCCO2)/C(=N/O)c1cc2cc(Cl)ccc2o1 [Compound 72, (E)-2-(5-chlorobenzofuran-2-yl)-N-((1R,2R)-1-(2,3-dihydrobenzo[b][1,4]dioxin-6-yl)-1-hydroxy-3-(pyrrolidin-1-yl)propan-2-yl)-2-(hydroxyimino)acetamide] | < 50
5 | O=C(N[C@H](CN1CCCC1)[C@H](O)c1ccc2c(c1)OCCO2)C(=O)C1Cc2ccc(-c3ccccn3)cc2C1 (stereo partly drawn) [Compound 73, N-((1R,2R)-1-(2,3-dihydrobenzo[b][1,4]dioxin-6-yl)-1-hydroxy-3-(pyrrolidin-1-yl)propan-2-yl)-2-oxo-2-(5-(pyridin-2-yl)-2,3-dihydro-1H-inden-2-yl)acetamide] | < 50
6 | O=C(N[C@H](CN1CCCC1)[C@H](O)c1ccc2c(c1)OCCO2)C(=O)C1Cc2ccc(Cl)cc2C1 (stereo partly drawn) [Compound 74, 2-(5-chloro-2,3-dihydro-1H-inden-2-yl)-N-((1R,2R)-1-(2,3-dihydrobenzo[b][1,4]dioxin-6-yl)-1-hydroxy-3-(pyrrolidin-1-yl)propan-2-yl)-2-oxoacetamide] | < 50

Same assay, conditions: Table 2; data marked by *

Row | Compound | % inhibition generated from Assay 1
7 | O=C(N[C@H](CN1CCCC1)[C@H](O)c1ccc2c(c1)OCCO2)C(=O)c1[nH]cc2c1CCCC2 [Compound 77, N-((1R,2R)-1-(2,3-dihydrobenzo[b][1,4]dioxin-6-yl)-1-hydroxy-3-(pyrrolidin-1-yl)propan-2-yl)-2-oxo-2-(4,5,6,7-tetrahydro-2H-isoindol-1-yl)acetamide] | B* (the compound had a % inhibition of greater than or equal to about 3% but less than about 50%)

Same assay, conditions: Table 2; data without asterisk; read-out: IC50 (nM) generated from Assay 1

Row | Compound | IC50 [nM]
8 | O=C(N[C@H](CN1CCC1)[C@H](O)c1ccc2c(c1)OCCO2)C(=O)c1cc2cc(Cl)ccc2o1 [Compound 78, N-((1R,2R)-3-(azetidin-1-yl)-1-(2,3-dihydrobenzo[b][1,4]dioxin-6-yl)-1-hydroxypropan-2-yl)-2-(5-chlorobenzofuran-2-yl)-2-oxoacetamide] | < 50
9 | O=C(N[C@H](CN1CCCC1)[C@H](O)c1ccc(OC2CC2)c(Cl)c1)C(=O)c1cc2cc(Cl)ccc2o1 [Compound 79, N-((1R,2R)-1-(3-chloro-4-cyclopropoxyphenyl)-1-hydroxy-3-(pyrrolidin-1-yl)propan-2-yl)-2-(5-chlorobenzofuran-2-yl)-2-oxoacetamide] | < 50
10 | O=C(N[C@H](CN1CCCC1)[C@H](O)c1ccc(OC2CC2)c(Cl)c1)C(F)(F)CCc1ccc2cc(F)ccc2c1 [Compound 82, N-((1R,2R)-1-(3-chloro-4-cyclopropoxyphenyl)-1-hydroxy-3-(pyrrolidin-1-yl)propan-2-yl)-2,2-difluoro-4-(6-fluoronaphthalen-2-yl)butanamide] | < 50

From US10227323B2, “Glucosylceramide synthase inhibitors for the treatment of diseases” (BIOMARIN PHARMACEUTICAL INC., priority 2013, dated 2019)
